According to patent publication EP4635958A1, “PYRIMIDINE-CONTAINING POLYCYCLIC DERIVATIVE INHIBITOR, AND PREPARATION METHOD THEREFOR AND USE THEREOF” (Shanghai Hansoh Biomedical Co., Ltd., priority 2022, dated 2024):

Legend:
[1] = test system: AsPC-1; experiment: Inhibition of proliferation of KRAS G12D mutant tumor cell line AsPC-1 (CellTiter-Glo); format: cell-based; conditions: Homo sapiens, ASPC1, about 72 h
Summary of the method: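 KRAS G12D-mutant AsPC-1 cells plated overnight at 37 °C/5% CO2, then exposed to serial compound dilutions (DMSO/medium, vehicle control) for about 72 h. Viability read by CellTiter-Glo luminescence; inhibition rate vs concentration fitted by nonlinear regression for IC50.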

[2] = test system: p-ERK in AGS cells; experiment: Inhibition of p-ERK in AGS cells (LANCE Ultra phospho-ERK1/2 kit); format: cell-based; conditions: Homo sapiens, AGS, 2 h, read-out: AGS_pERK IC50
Experimental: 1. Experimental objective: The inhibition activity of the example compounds on the phosphorylated ERK level in KRAS G12D mutant cells AGS was determined. 2. Experimental instruments: • 2.1 Instruments: Envison; Pipette (Eppendorf & Rainin) • 2.2 Reagents: AGS cells were purchased from COBIOER BIOSCIENCES CO., LTD, with a catalog number of CBP60476; Phosphorylated ERK1/2 (T202-Y204) LANCE Ultra Cellular Detection Kit was purchased from PerkinElmer, with a catalog number of TRF4000M; RPMI 1640 was purchased from Gibco, with a catalog number of 22400071; FBS was purchased from Gibco, with a catalog number of 10091148; PBS was purchased from Gibco, with a catalog number of 10010023; trypsin was purchased from Gibco, with a catalog number of 25200056; cell culture plates were purchased from Corning Company, with a catalog number of 3610; White opaque OptiPlate™-384 plates were purchased from PerkinElmer, with a catalog number of 6007290. 3. Experimental method: When AGS cells were cultured to appropriate confluence, the AGS cells were collected, and the cell density was adjusted to 4 × 10^5/mL using complete culture medium. The cell suspension was plated onto a 96-well plate at 100 µL per well, and the plate was placed in the incubator at 37°C and 5% CO2 for adherent culture overnight. Solutions of the compound with different concentrations were formulated using DMSO and complete culture medium, and a vehicle control was set up. The solutions of the compound were added to the 96-well plate at 25 µL per well, and the plate was placed in the incubator at 37°C and 5% CO2 for further culture for 2 h. Then, the supernatant of the cell culture plate was discarded, 50 µL of lysis buffer was added to each well, the cells were lysed at room temperature under shaking for 30 min, then placed in a centrifuge and centrifuged at 1000 rpm for 1 min. 15 µL of supernatant was transferred to a 384-well plate, 5 µL of detection mixture was added to each well (Eu-labeled anti-ERK1/2 (T202-Y204) Antibody at a final detection concentration of 0.5 nM and ULight labeled anti-ERK1/2 Antibody at a final detection concentration of 5 nM), centrifuged at 1000 rpm for 1 min, mixed evenly, and reacted at room temperature overnight. The plate was read using Envison and the signal values at the emission wavelengths of 620 nm and 665 nm were detected using a time-resolved fluorescence program. 4. […] Graphpad Prism software was used to fit the concentration and inhibition rate to a nonlinear regression curve, so as to obtain the IC50 value. Table 5: Inhibition activity of the compounds on p-ERK in AGS cells

[3] = Plasma stability test, mouse plasma; format: in vitro ADME; conditions: for half-life: read-out: t1/2 (converted);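 on all read-outs here: test compound quantified by LC-MS using positive-mode electrospray ionization and MRM scanning, with an internal standard added in acetonitrile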
Experimental: (§1) Liquid chromatography-mass spectrometer, centrifuge, vortexer, pipette, continuous dispenser, 96-well plate, 50% methanol aqueous solution, acetonitrile solution containing internal standard, blank matrix (plasma of rat, dog, or human), Propantheline (propantheline bromide), Mevinolin (lovastatin), and test compound.
(§2) After whole blood was collected from animals or humans, it was placed in a test tube containing an anticoagulant and centrifuged at 3500 rpm for 10 min to collect the upper pale yellow plasma.
(§3) The compound was weighed and the stock solution was formulated with DMSO and the working solution was formulated with 100 mM phosphate buffer.
(§4) • Instrument: API4000 liquid chromatography-mass spectrometer, AB Company, USA; • the ion source was electrospray ionization source (ESI); • drying gas (N2) temperature was 500°C; • electrospray voltage was 5500V; • the detection method was positive ion detection; • the scanning method was selected reaction monitoring (MRM); • the scanning time was 0.1s.

[4] = Plasma stability test, human plasma; format: in vitro ADME; conditions: for half-life: read-out: t1/2 (converted);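 on all read-outs here: test compound incubated in human plasma, quantified by LC-MS/MS (positive-ion ESI, MRM) against an internal standard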
Experimental: as §1, §2, §3, §4

[5] = Plasma stability test, rat plasma; conditions: for Remaining rate (%) 0 min / Remaining rate (%) 15 min / Remaining rate (%) 30 min / Remaining rate (%) 60 min / Remaining rate (%) 120 min: Rat plasma, 37°C; for half-life: rat, plasma
Source text: The purpose of this experiment was to detect the stability of the example compounds in plasma of mouse, rat, dog and human.
as §1, §2, §3
2.36 mg of propantheline bromide was weighed and diluted with 1 mL of DMSO into a 10 mM stock solution; 10 µL of 10 mM stock solution was pipetted into 1 mL of 100 mM phosphate buffer to achieve a final concentration of 100 µM.
4.05 mg of lovastatin was weighed and diluted with 1 mL of DMSO into a 10 mM stock solution; 10 µL of 10 mM stock solution was pipetted into 1 mL of 100 mM phosphate buffer to achieve a final concentration of 100 µM.
• 1) In a 96-well plate, 285 µL of plasma and 15 µL of 10 µM compound (test compound) were added in sequence and incubated at 37°C. • 2) 40 µL was taken at 0, 15, 30, 60, 90, and 120 min (the sampling point can be fine-tuned) and 160 µL of acetonitrile stop solution containing internal standard was add. • 3) After centrifugation (3500 rpm, 10 min), 50 µL of supernatant was taken, and 50 µL of DDH2O added for dilution and then the obtained mixture was injected into LC-MS/MS.
• Instruments: Shimadzu LC-20 AD • Chromatographic column: Phenomenex Gemiu ® C18 (50*4.6 mm, 5 µm particle size); • mobile phase: A: Acetonitrile, B: 0.1% formic acid solution 0-8 min: 5% A→95% A, 2.0-2.1 min: 90%A→5% A; Flow rate: 0.8 mL/min; Run time: 5.0 min; Injection volume: 5 µL.
as §4

SMILES | IC50 [1] | IC50 [2] | Remaining rate (%) 0 min ([3]; Mouse plasma, 37°C, 0 min) | Remaining rate (%) 15 min ([3]; Mouse plasma, 37°C, 15 min) | Remaining rate (%) 30 min ([3]; Mouse plasma, 37°C, 30 min) | Remaining rate (%) 60 min ([3]; Mouse plasma, 37°C, 60 min) | Remaining rate (%) 120 min ([3]; Mouse plasma, 37°C, 120 min) | half-life ([3]; Mouse plasma, 37°C) | Remaining rate (%) 0 min ([4]; Human plasma, 37°C, 0 min) | Remaining rate (%) 15 min ([4]; Human plasma, 37°C, 15 min) | Remaining rate (%) 30 min ([4]; Human plasma, 37°C, 30 min) | Remaining rate (%) 60 min ([4]; Human plasma, 37°C, 60 min) | Remaining rate (%) 120 min ([4]; Human plasma, 37°C, 120 min) | half-life ([4]; Human plasma, 37°C) | Remaining rate (%) 0 min [5] | Remaining rate (%) 15 min [5] | Remaining rate (%) 30 min [5] | Remaining rate (%) 60 min [5] | Remaining rate (%) 120 min [5] | half-life [5] | further results
C#Cc1c(F)ccc2cc(O)cc(-c3nc4c5c(nc(OCC6(CN7CCC(=C(F)F)CC7)CC6)nc5c3F)N3C[C@H]5CC[C@H](N5)[C@H]3[C@H](C)O4)c12 [Example 19-1, 4-((5S,5aS,6S,9R)-12-((1-((4-(difluoromethylene)piperidin-1-yl)methyl)cyclopropyl)methoxy)-1-fluoro-5-methyl-5a,6,7,8,9,10-hexahydro-5H-4-oxa-3,10a,11,13,14-pentaaza-6,9-methylnaphtho[1,8-ab]hept-2-yl)-5-ethynyl-6-fluoronaphthalene-2-ol] | 3.1 nM | 5.6 nM | 100.00% | 101.30% | 98.20% | 91.51% | 92.09% | 1640 min | 100.00% | 95.61% | 93.15% | 85.08% | 83.37% | 0.647 days | 100.00% | 96.27% | 91.39% | 95.69% | 94.09% | 5180 min | –
C#Cc1c(F)ccc2cc(O)cc(-c3nc4c5c(nc(OCC6(CN7CCC(=CF)CC7)CC6)nc5c3F)N3C[C@H]5CC[C@H](N5)[C@H]3[C@H](C)O4)c12 [Example 129, 5-ethynyl-6-fluoro-4-((5S,5aS,6S,9R)-1-fluoro-12-((1-((4-(fluoromethylene)piperidin-1-yl)methyl)cyclopropyl)methoxy)-5-methyl-5a,6,7,8,9,10-hexahydro-5H-4-oxa-3,10a,11,13,14-pentaaza-6,9-methylnaphtho[1,8-ab]hept-2-yl)naphthalen-2-ol] | 3.6 nM | 2.4 nM | 100.00% | 97.30% | 103.47% | 104.94% | 91.62% | 2260 min | 100.00% | 109.00% | 97.59% | 101.54% | 105.91% | – | 100.00% | 110.22% | 98.09% | 106.43% | 95.62% | 2470 min | t1/2 ([4]; Human plasma, 37°C): ∞
[2H]C([2H])([2H])[C@@H]1Oc2nc(-c3cc(O)cc4ccc(F)c(C#C)c34)c(F)c3nc(OCC4(CN5CCC(=C(F)F)CC5)CC4)nc(c23)N2C[C@H]3CC[C@H](N3)[C@@H]12 [Example 161, 4-((5S,5aS,6S,9R)-12-((1-((4-(difluoromethylene)piperidin-1-yl)methyl)cyclopropyl)methoxy)-1-fluoro-5-(methyl-d3)-5a,6,7,8,9,10-hexahydro-5H-4-oxa-3,10a,11,13,14-pentaaza-6,9-methylnaphtho[1,8-ab]hept-2-yl)-5-ethynyl-6-fluoronaphthalen-2-ol] | 4.4 nM | 4.9 nM | – | – | – | – | – | 13700 min | – | – | – | – | – | 5.91 days | – | – | – | – | – | 1760 min | Remaining rate (%) 0 min ([3]; mouse, plasma, 0 h): 100.00%; Remaining rate (%) 15 min ([3]; mouse, plasma, 0.25 h): 101.36%; Remaining rate (%) 30 min ([3]; mouse, plasma, 0.5 h): 101.38%; Remaining rate (%) 60 min ([3]; mouse, plasma, 1 h): 98.35%; Remaining rate (%) 120 min ([3]; mouse, plasma, 2 h): 101.35%; Remaining rate (%) 0 min ([4]; human, plasma, 0 h): 100.00%; Remaining rate (%) 15 min ([4]; human, plasma, 0.25 h): 93.48%; Remaining rate (%) 30 min ([4]; human, plasma, 0.5 h): 92.44%; Remaining rate (%) 60 min ([4]; human, plasma, 1 h): 95.19%; Remaining rate (%) 120 min ([4]; human, plasma, 2 h): 97.25%
[2H]C([2H])([2H])[C@@H]1Oc2nc(-c3cc(O)cc4ccc(F)c(C#C)c34)c(F)c3nc(OCC4(CN5CCC(=CF)CC5)CC4)nc(c23)N2C[C@H]3CC[C@H](N3)[C@@H]12 [Example 164] | 6.6 nM | 3.6 nM | 100.00% | 99.34% | 95.56% | 101.65% | 100.99% | 8920 min | 100.00% | 97.48% | 91.02% | 93.68% | 89.66% | 1.26 days | 100.00% | 97.07% | 93.36% | 97.21% | 95.03% | 5490 min | –
[2H]C([2H])(Oc1nc2c3c(nc(-c4cc(O)cc5ccc(F)c(C#C)c45)c(F)c3n1)O[C@@H](C)[C@@H]1[C@@H]3CC[C@H](CN21)N3)C1(C([2H])([2H])N2CCC(=CF)CC2)CC1 [Example 291, 5-ethynyl-6-fluoro-4-((5S,5aS,6S,9R)-1-fluoro-12-((1-((4-(fluoromethylene)piperidin-1-yl)methyl-d2)cyclopropyl)methoxy-d2)-5-methyl-5a,6,7,8,9,10-hexahydro-5H-4-oxa-3,10a,11,13,14-pentaaza-6,9-methylnaphtho[1,8-ab]hept-2-yl)naphthalen-2-ol] | 4.6 nM | 2.3 nM | 100.00% | 97.50% | 82.58% | 81.82% | 63.23% | 185 min | 100.00% | 102.43% | 95.46% | 105.44% | 96.68% | 4.81 days | 100.00% | 99.67% | 102.83% | 103.48% | 98.20% | 2300 min | –
